Experimental data published in patent US20200024278A1, “COMPOSITION COMPRISING ANTIBIOTIC COMPOUND AND AN HETEROCYCLIC COMPOUND AND THEIR USE IN PREVENTING OR TREATING BACTERIAL INFECTIONS” (MUTABILIS, priority 2016, published 2020).

Key:
Assay in all cases: MIC, broth microdilution (CLSI), substance alone or ATB combined with compound at 4 or 8 μg/mL
ECO 190317 = assay type: cell-based, E. coli; conditions: ECO 190317; for MIC ATB combined with compound: compound @4 μg/ml
Outline: (§1)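 CLSI M7-A7 broth microdilution. ca-MHB, 5·10^5 CFU/mL log-phase cells, 16-20 h, 35° C, ambient air. Fosfomycin wells + 25 μg/ml glucose-6-phosphate. Visual MIC read.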

ECO UFR39 = assay type: cell-based, E. coli; conditions: ECO UFR39; for MIC ATB combined with compound: compound @4 μg/ml
Outline: as §1

KPN 6299 = assay type: cell-based, K. pneumoniae; conditions: compound @4 μg/ml
Outline: as §1

KPN BAA-1898 = assay type: cell-based, K. pneumoniae; conditions: KPN BAA-1898; for MIC ATB combined with compound: compound @4 μg/ml
Outline: as §1

KPN UFR42 = assay type: cell-based, K. pneumoniae; conditions: KPN UFR42; for MIC ATB combined with compound: compound @4 μg/ml
Outline: as §1

ECL P99 = assay type: cell-based, E. cloacae; conditions: ECL P99; for MIC ATB combined with compound: compound @4 μg/ml
Outline: as §1

PAE 105250 = assay type: cell-based, P. aeruginosa; conditions: PAE 105250; for MIC ATB combined with compound: compound @4 μg/ml
Outline: as §1

PAE UFR48 = assay type: cell-based, P. aeruginosa; conditions: PAE UFR48; for MIC ATB combined with compound: compound @4 μg/ml
Outline: as §1

PAE UFR90 = assay type: cell-based, P. aeruginosa; conditions: PAE UFR90; for MIC ATB combined with compound: compound @4 μg/ml
Outline: as §1

SAU 29213 = assay type: cell-based, S. aureus; conditions: for MIC ATB combined with compound: compound @4 μg/ml, SAU 29213
Outline: as §1

SPN 49619 = assay type: cell-based, S. pneumoniae; conditions: SPN 49619; for MIC ATB combined with compound: compound @4 μg/ml
Outline: as §1

NC[C@@H]1CC(=NOCC(N)=O)[C@@H]2CN1C(=O)N2OS(=O)(=O)[O-].O=C(O)C(F)(F)F.[Na+] [Example 4, 2,2,2-trifluroacetate and sodium [(2S,5S)-4-(2-amino-2-oxo-ethoxy)imino-2-(azaniumylmethyl)-7-oxo-1,6-diazabicyclo[3.2.1]octan-6-yl] sulfate]
4 µg/mL: MIC ATB combined with compound (KPN 6299; ATB PIP) | MIC (PAE UFR48; substance alone) | MIC ATB combined with compound (SAU 29213; ATB FEP) | MIC ATB combined with compound (SAU 29213; ATB PIP)
<=0.031 μg/mL: MIC ATB combined with compound (ECL P99; ATB PIP) | MIC ATB combined with compound (PAE 105250; ATB FEP) | MIC ATB combined with compound (PAE 105250; ATB PIP)
<0.031 µg/mL: MIC ATB combined with compound (ECO 190317; ATB ATM) | MIC ATB combined with compound (ECO 190317; ATB FEP) | MIC ATB combined with compound (ECO 190317; ATB MEM) | MIC ATB combined with compound (ECO 190317; ATB PIP) | MIC ATB combined with compound (ECO UFR39; ATB ATM) | MIC ATB combined with compound (ECO UFR39; ATB FEP) | MIC ATB combined with compound (ECO UFR39; ATB MEM) | MIC ATB combined with compound (ECL P99; ATB ATM) | MIC ATB combined with compound (ECL P99; ATB FEP) | MIC ATB combined with compound (ECL P99; ATB MEM) | MIC ATB combined with compound (PAE 105250; ATB ATM) | MIC ATB combined with compound (PAE 105250; ATB MEM) | MIC ATB combined with compound (PAE UFR48; ATB ATM) | MIC ATB combined with compound (PAE UFR48; ATB FEP) | MIC ATB combined with compound (PAE UFR48; ATB MEM) | MIC ATB combined with compound (PAE UFR48; ATB PIP) | MIC ATB combined with compound (PAE UFR90; ATB ATM) | MIC ATB combined with compound (PAE UFR90; ATB FEP) | MIC ATB combined with compound (PAE UFR90; ATB MEM) | MIC ATB combined with compound (PAE UFR90; ATB PIP)
<0.125 µg/mL: MIC ATB combined with compound (ECO 190317; ATB FOS) | MIC ATB combined with compound (ECO UFR39; ATB FOS) | MIC ATB combined with compound (ECL P99; ATB FOS) | MIC ATB combined with compound (PAE UFR48; ATB FOS) | MIC ATB combined with compound (PAE UFR90; ATB FOS)
0.25 µg/mL: MIC (ECO 190317; substance alone) | MIC (ECO UFR39; substance alone) | MIC ATB combined with compound (KPN 6299; ATB MEM)
8 µg/mL: MIC ATB combined with compound (KPN BAA-1898; ATB ATM) | MIC ATB combined with compound (PAE 105250; ATB FOS)
1 µg/mL: MIC ATB combined with compound (KPN UFR42; ATB ATM)
0.5 µg/mL: MIC ATB combined with compound (KPN BAA-1898; ATB FEP) | MIC ATB combined with compound (KPN BAA-1898; ATB MEM) | MIC ATB combined with compound (SPN 49619; ATB PIP)
32 µg/mL: MIC ATB combined with compound (KPN BAA-1898; ATB FOS) | MIC ATB combined with compound (KPN UFR42; ATB FOS) | MIC (PAE 105250; substance alone) | MIC ATB combined with compound (SPN 49619; ATB FOS) | MIC (SPN 49619; substance alone)
0.063 µg/mL: MIC ATB combined with compound (ECO UFR39; ATB PIP) | MIC ATB combined with compound (KPN 6299; ATB ATM) | MIC (ECL P99; substance alone) | MIC ATB combined with compound (SPN 49619; ATB FEP) | MIC ATB combined with compound (SPN 49619; ATB MEM)
0.125 µg/mL: MIC ATB combined with compound (KPN 6299; ATB FEP) | MIC ATB combined with compound (SAU 29213; ATB MEM)
64 µg/mL: MIC ATB combined with compound (KPN 6299; ATB FOS)
>32 µg/mL: MIC ATB combined with compound (KPN BAA-1898; ATB PIP) | MIC (KPN BAA-1898; substance alone) | MIC ATB combined with compound (KPN UFR42; ATB FEP) | MIC ATB combined with compound (KPN UFR42; ATB MEM) | MIC ATB combined with compound (KPN UFR42; ATB PIP) | MIC (KPN UFR42; substance alone) | MIC ATB combined with compound (SAU 29213; ATB ATM) | MIC (SAU 29213; substance alone, SAU 29213 (MSSA 29213)) | MIC ATB combined with compound (SPN 49619; ATB ATM)
2 µg/mL: MIC (PAE UFR90; substance alone) | MIC ATB combined with compound (SAU 29213; ATB FOS)
